In patent US12523646B2, “Device and method for cell-based drug screening” (The Regents of the University of California, priority 2017, dated 2026):

Assay: Numerical simulations (Comsol Multiphysics) of small-molecule concentration dynamics with porous beads and conical microwells
Conditions: 225 μm diameter beads

O=C1OC2(c3ccc(O)cc3Oc3cc(O)ccc32)c2ccccc21 [fluorescein]
diffusion coefficient in the bead, Db, corresponding to measured t1/2: 0.125 μm^2/s
